Several values for one entry are separate records, joined by “and”; a condition that tells them apart may be missing. Equal entries are not always repeated. Toxic doses and inconclusive results are not listed. Rule for the calls: active = survival T/C of 150% or more; inactive = T/C below 125% in these data.
System: P388 leukemia ip, CD2F1 mice, survival T/C
Assay: NCI In Vivo Anticancer Drug Screen. Data for tumor model P388 Leukemia (intraperitoneal) in CD2F1 (CDF1) mice
Settings: endpoint: median survival time, higher = longer survival
Procedure, shortened: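 Mice carrying the transplanted tumor received test compound or vehicle. Survival was recorded in each group, and the value is the treated-group measurement divided by that of the vehicle-treated control group.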

[1] = dose: 50.0 mg/kg/injection, schedule: Q01DX005 (ip), vehicle: Klucel (hydroxypropylcellulose) (HPC)
[2] = dose: 100.0 mg/kg/injection, schedule: Q01DX005 (ip), vehicle: Klucel (hydroxypropylcellulose) (HPC)
[3] = dose: 12.5 mg/kg/injection, schedule: Q01DX005 (ip), vehicle: saline with Tween-80
[4] = dose: 25.0 mg/kg/injection, schedule: Q01DX005 (ip), vehicle: saline with Tween-80
[5] = dose: 50.0 mg/kg/injection, schedule: Q01DX005 (ip), vehicle: saline with Tween-80
[6] = dose: 50.0 mg/kg/injection, schedule: Q01DX009 (ip), vehicle: saline with Tween-80
[7] = dose: 100.0 mg/kg/injection, schedule: Q01DX009 (ip), vehicle: saline with Tween-80
[8] = dose: 50.0 mg/kg/injection, schedule: Q01DX009 (ip), vehicle: saline
[9] = dose: 200.0 mg/kg/injection, schedule: Q01DX009 (ip), vehicle: saline
[10] = dose: 100.0 mg/kg/injection, schedule: Q01DX005 (ip), vehicle: saline with Tween-80
[11] = dose: 60.0 mg/kg/injection, schedule: Q01DX005 (ip), vehicle: saline with Tween-80
[12] = dose: 120.0 mg/kg/injection, schedule: Q01DX005 (ip), vehicle: saline with Tween-80
[13] = dose: 240.0 mg/kg/injection, schedule: Q01DX005 (ip), vehicle: saline with Tween-80
[14] = dose: 200.0 mg/kg/injection, schedule: Q01DX005 (ip), vehicle: Klucel (hydroxypropylcellulose) (HPC)
[15] = dose: 100.0 mg/kg/injection, schedule: Q01DX009 (ip), vehicle: saline
[16] = dose: 60.0 mg/kg/injection, schedule: Q01DX005 (ip), vehicle: Klucel + Tween-80
[17] = dose: 120.0 mg/kg/injection, schedule: Q01DX005 (ip), vehicle: Klucel + Tween-80

Measured: T/C

O=C1c2nc[nH]c2C(=O)c2c1nc[nH]c2=O
inactive: dose: 3.75 mg/kg/injection, schedule: Q01DX005 (ip), vehicle: other 101 % of control | dose: 7.5 mg/kg/injection, schedule: Q01DX005 (ip), vehicle: other 100 % of control | dose: 15.0 mg/kg/injection, schedule: Q01DX005 (ip), vehicle: other 106 % of control | dose: 30.0 mg/kg/injection, schedule: Q01DX005 (ip), vehicle: other 102 % of control

Cc1n[nH]c(=O)c2ccccc12
inactive: dose: 100.0 mg/kg/injection, schedule: Q04DX003 (ip), vehicle: saline with Tween-80 91 % of control | dose: 200.0 mg/kg/injection, schedule: Q04DX003 (ip), vehicle: saline with Tween-80 99 % of control | dose: 400.0 mg/kg/injection, schedule: Q04DX003 (ip), vehicle: saline with Tween-80 107 % of control

c1ccc(CN2COCO[C@H]3CCC[C@@H]32)cc1
inactive: [1] 107 % of control | [2] 104 % of control

COc1cc2c(cc1CN(C)C)[nH]c1c3ccc(Cl)cc3ncc21
inactive: [3] 104 % of control | [4] 103 % of control | [5] 109 % of control and 112 % of control

Cc1cc2ccccc2c2nncn12
inactive: [6] 103 % of control | [7] 103 % of control

CCCCCCCCS(=O)(=O)NC
inactive: dose: 25.0 mg/kg/injection, schedule: Q01DX009 (ip), vehicle: saline 117 % of control | [8] 102 % of control | [9] 102 % of control

CC(C)c1oc(=O)cc2c1C(O)C1OC(=O)C3(C)C(O)C4OC4C2(C)C13 (stereo not drawn) (tested in a mixture with another compound)
inactive: dose: 15.0 mg/kg/injection, schedule: Q01DX009 (ip), vehicle: saline with Tween-80 113 % of control | dose: 60.0 mg/kg/injection, schedule: Q01DX009 (ip), vehicle: saline with Tween-80 123 % of control

CCC1(O)CC(c2ccccc2)N(C)C(c2ccccc2)C1 (stereo not drawn)
inactive: [5] 99 % of control | [10] 95 % of control

O=C(C[n+]1ccccc1)N/N=C/c1cccc([N+](=O)[O-])c1
inactive: dose: 12.5 mg/kg/injection, schedule: Q01DX009 (ip), vehicle: saline with Tween-80 102 % of control | dose: 25.0 mg/kg/injection, schedule: Q01DX009 (ip), vehicle: saline with Tween-80 99 % of control | [6] 103 % of control

COc1cccc(/C=N/NC(=O)CNC(=O)Nc2cccc([N+](=O)[O-])c2)c1OC
inactive: [11] 90 % of control | [12] 89 % of control and 96 % of control | [13] 99 % of control and 100 % of control

O=C1C(=O)c2cccc([N+](=O)[O-])c2-c2ccccc21
inactive: [3] 104 % of control and 106 % of control | [4] 101 % of control and 115 % of control | [5] 107 % of control and 118 % of control | [10] 104 % of control (2×) and 95 % of control

C[C@]12CC[C@H]3[C@@H](CCC4=C[C@@H](OC5OCC(OC6OC(CO)C(O)C(O)C6O)C(O)C5O)CC[C@@]43C=O)[C@@]1(O)CCC2C1=CC(=O)OC1 (stereo partly drawn)
inactive: dose: 0.16 mg/kg/injection, schedule: Q01DX009 (ip), vehicle: saline 105 % of control | dose: 0.25 mg/kg/injection, schedule: Q01DX009 (ip), vehicle: saline with Tween-80 95 % of control | dose: 0.31 mg/kg/injection, schedule: Q01DX009 (ip), vehicle: saline 108 % of control | dose: 0.5 mg/kg/injection, schedule: Q01DX009 (ip), vehicle: saline with Tween-80 107 % of control and 95 % of control | dose: 0.63 mg/kg/injection, schedule: Q01DX009 (ip), vehicle: saline 103 % of control | dose: 1.0 mg/kg/injection, schedule: Q01DX009 (ip), vehicle: saline with Tween-80 117 % of control and 97 % of control | dose: 1.25 mg/kg/injection, schedule: Q01DX009 (ip), vehicle: saline 103 % of control

O=[N+]([O-])c1ccc(CN2CCC(C(=S)Nc3ccccc3)=C2c2ccccc2)cc1
inactive: dose: 6.25 mg/kg/injection, schedule: Q01DX005 (ip), vehicle: Klucel (hydroxypropylcellulose) (HPC) 92 % of control | dose: 12.5 mg/kg/injection, schedule: Q01DX005 (ip), vehicle: Klucel (hydroxypropylcellulose) (HPC) 90 % of control | dose: 25.0 mg/kg/injection, schedule: Q01DX005 (ip), vehicle: Klucel (hydroxypropylcellulose) (HPC) 87 % of control | [2] 92 % of control | [14] 87 % of control

NC(=N/C(=C/c1ccccc1)c1ccccc1)c1ccccc1
inactive: [5] 92 % of control | [10] 102 % of control

COc1ccc(C(=O)C2=C(C)Nc3ccc(Br)cc3S2)cc1
inactive: [11] 101 % of control | [12] 110 % of control | [13] 105 % of control

S=C(N/N=C\c1nc2ccccc2c2ccccc12)Nc1ccccc1
inactive: dose: 100.0 mg/kg/injection, schedule: Q04DX002 (ip), vehicle: Klucel (hydroxypropylcellulose) (HPC) 99 % of control | dose: 200.0 mg/kg/injection, schedule: Q04DX002 (ip), vehicle: Klucel (hydroxypropylcellulose) (HPC) 94 % of control | dose: 400.0 mg/kg/injection, schedule: Q04DX002 (ip), vehicle: Klucel (hydroxypropylcellulose) (HPC) 93 % of control

C=C(C)C12CC(C)C34OC(CCCCCCCCC)(OC1C3C1OC1(CO)C(O)C1(O)C(=O)C(C)=CC14)O2 (stereo not drawn)
inactive: dose: 3.0 micrograms/kg/injection, schedule: Q01DX009 (ip), vehicle: saline + alcohol 107 % of control | dose: 5.0 micrograms/kg/injection, schedule: Q01DX009 (ip), vehicle: saline + alcohol 109 % of control | dose: 10.0 micrograms/kg/injection, schedule: Q01DX009 (ip), vehicle: saline + alcohol 105 % of control | dose: 20.0 micrograms/kg/injection, schedule: Q01DX009 (ip), vehicle: saline + alcohol 109 % of control | dose: 40.0 micrograms/kg/injection, schedule: Q01DX009 (ip), vehicle: saline + alcohol 116 % of control

CCO/C(C)=N\O
inactive: dose: 25.0 mg/kg/injection, schedule: Q04DX003 (ip), vehicle: Klucel (hydroxypropylcellulose) (HPC) 98 % of control | [8] 103 % of control | dose: 50.0 mg/kg/injection, schedule: Q04DX003 (ip), vehicle: Klucel (hydroxypropylcellulose) (HPC) 98 % of control | [15] 97 % of control | dose: 100.0 mg/kg/injection, schedule: Q04DX003 (ip), vehicle: Klucel (hydroxypropylcellulose) (HPC) 99 % of control | [9] 101 % of control | dose: 200.0 mg/kg/injection, schedule: Q04DX003 (ip), vehicle: Klucel (hydroxypropylcellulose) (HPC) 99 % of control

C=CCNC(=S)Nc1ncn[nH]1
inactive: [1] 95 % of control | [2] 104 % of control

CC(=O)NCCSSCc1ccccc1CS(=O)O
inactive: dose: 25.0 mg/kg/injection, schedule: Q01DX005 (ip), vehicle: suspension in saline 104 % of control | dose: 50.0 mg/kg/injection, schedule: Q01DX005 (ip), vehicle: suspension in saline 106 % of control | dose: 100.0 mg/kg/injection, schedule: Q01DX005 (ip), vehicle: suspension in saline 113 % of control

N#CC(=S)N(C(=O)c1ccc(Cl)cc1)c1ccccc1Cl
inactive: [16] 103 % of control | [17] 112 % of control

C1CCN(c2c3c(nc4nnnn24)CCC3)CC1
inactive: [8] 96 % of control | [15] 87 % of control | [9] 90 % of control

CCOC(=O)c1c(Cl)c(Cl)c(C(=O)OCC)c(Cl)c1Cl
inactive: dose: 100.0 mg/kg/injection, schedule: Q04DX003 (ip), vehicle: saline sonified 100 % of control | dose: 200.0 mg/kg/injection, schedule: Q04DX003 (ip), vehicle: saline sonified 100 % of control | dose: 400.0 mg/kg/injection, schedule: Q04DX003 (ip), vehicle: saline sonified 100 % of control

Cc1n[nH]c(=O)c(N)c1-c1cc(-c2ccccc2)n[nH]1
inactive: [11] 91 % of control | [12] 94 % of control | [13] 93 % of control

CC1(C)OC2(C=CC(C)([N+](=O)[O-])C=C2)OC1=O (stereo not drawn)
inactive: [1] 101 % of control | [2] 94 % of control | [14] 100 % of control

CC(C)(C)c1ccc(OCCSCCOc2ccc(C(C)(C)C)cc2)cc1
inactive: [6] 90 % of control | [7] 90 % of control | dose: 200.0 mg/kg/injection, schedule: Q01DX009 (ip), vehicle: saline with Tween-80 90 % of control

CCOc1c(N=Nc2ccc(C)cc2)c(C)nn1C(=S)SC
inactive: [16] 100 % of control | [17] 94 % of control | dose: 240.0 mg/kg/injection, schedule: Q01DX005 (ip), vehicle: Klucel + Tween-80 100 % of control
